“And” between values parts separate entries of the source, which are not always exact repeats. Equal entries are not always repeated. Where two headings read alike, the source gives them in different places.
Tests used:
PMK from S. solfataricus = PMK from S. solfataricus (Saccharolobus solfataricus, UniProt Q97UL6); experiment: Steady-state kinetics, coupled assay, PMK; type: biochemical
[1] = system: MPD from R. castenholzii (SEQ ID NO: 1); experiment: Steady-state kinetics, coupled assay, MPD; type: biochemical
Description: (§1) Instead, it behaves as an MPD and catalyzes the decarboxylation of MVAP (3) to IP (4) with a kcat of 0.94 s^−1 and an apparent KM for MVAP of 1.150 mM (Table 2). This enzyme, by sequence homologous to MDD, has acquired an unexpected new function as a bona fide MPD playing the role of the long sought MPD of the alternative MVA pathway.
(§2) Steady-state kinetic analyses.

PMK from B. floridae = PMK from B. floridae (Branchiostoma floridae, UniProt C3Y1G0); experiment: Steady-state kinetics, coupled assay, PMK; type: biochemical; details: substrate MVAP
[2] = system: PMK and MDD from A. thaliana; experiment: GC-MS in vitro classical MVA pathway reaction; type: biochemical; details: A. thaliana enzymes, 500 μM (RS)-MVAP, relative to FPP control
Description: (§3) GC-MS quantification of fully functional alternative and classical MVA pathways. To confirm that the functional R. castenholzii MPD (MDD-like protein sequence) catalyzes the transformation of MVAP (3) to IP (4) in a reconstituted in vitro pathway, a five-enzyme in vitro reaction mixture was assembled. Briefly, MVAP (3) and ATP were incubated for 30 min with MPD and IPK from R. castenholzii. The reaction mixture was then diluted into a mixture containing all necessary downstream enzymes to biosynthesize the GC-detectable sesquiterpene 5-epi-aristolochene (5-EA, 6). Similar reactions were performed for the in vitro reconstitution of the classical MVA pathway using PMK and MDD from each respective organism.
(§4) All GC-MS assays were carried out in two steps. First, 1 μM of each of two enzymes (PMK and MDD for the classical MVA pathway, MDD and IPK for the alternative MVA pathway) was incubated for 30 min with 500 μM (RS)-MVAP, 4 mM ATP, and 10 mM MgCl2 buffered with 50 mM Tris-HCl, pH 8.0. Second, 40 μl of this reaction was transferred to a glass vial containing 10 mM MgCl2 buffered with 50 mM Tris-HCl, pH 8.0, containing at least a 150-fold excess of each of the following enzymes: E. coli isopentenyl diphosphate isomerase (IPPI), E. coli farnesyl diphosphate synthase (FPPS), and tobacco 5-epi-aristolochene synthase (TEAS). This reaction mixture was overlaid with ethyl acetate, incubated overnight, and vortexed to extract hydrocarbons from the aqueous layer. GC-MS assays were performed as previously described (18). All values were compared to a control reaction, where FPP was added in place of MVA pathway enzymes at an appropriate concentration to simulate complete turnover of MVAP.

[3] = system: PMK and MDD from B. floridae; experiment: GC-MS in vitro classical MVA pathway reaction; type: biochemical; details: B. floridae enzymes, 500 μM (RS)-MVAP, relative to FPP control
Description: as §3, §4

[4] = system: PMK and MDD from S. solfataricus; experiment: GC-MS in vitro classical MVA pathway reaction; type: biochemical; details: S. solfataricus enzymes, 500 μM (RS)-MVAP, relative to FPP control
Description: as §3, §4

[5] = system: R. castenholzii MDD homolog with B. floridae PMK; type: biochemical
[6] = system: MPD and IPK from R. castenholzii; experiment: GC-MS in vitro alternative MVA pathway reaction; type: biochemical
Description: as §3
All GC-MS assays were carried out in two steps. First, 1 μM of each of two enzymes (PMK and MDD for the classical MVA pathway, MDD and IPK for the alternative MVA pathway) was incubated for 30 min with 500 μM (RS)-MVAP, 4 mM ATP, and 10 mM MgCl2 buffered with 50 mM Tris-HCl, pH 8.0. Second, 40 μl of this reaction was transferred to a glass vial containing 10 mM MgCl2 buffered with 50 mM Tris-HCl, pH 8.0, containing at least a 150-fold excess of each of the following enzymes: E. coli isopentenyl diphosphate isomerase (IPPI), E. coli farnesyl diphosphate synthase (FPPS), and tobacco 5-epi-aristolochene synthase (TEAS). […]

[7] = system: IPK and MDD from A. thaliana; experiment: GC-MS in vitro alternative MVA pathway reaction; type: biochemical
Source text: (§5) The in vitro classical MVA pathway reactions for S. solfataricus, A. thaliana, and B. floridae yield 39.2%, 48.7%, and 52.1% conversion of MVAP (3) to 5-EA (6), respectively (FIG. 3). The in vitro classical MVA pathway reaction from R. castenholzii (using B. floridae PMK to complete the missing step) yields less then 0.2% conversion to 5-EA (FIG. 3). In contrast, the in vitro alternative MVA pathway from R. castenholzii enzymes yields a 2.0% conversion of MVAP (3) to 5-EA (6). B. floridae, A. thaliana, and S. solfataricus were tested for a possible alternative MVA pathway components using their IPKs and MDDs.
as §4

[8] = system: IPK and MDD from B. floridae; experiment: GC-MS in vitro alternative MVA pathway reaction; type: biochemical
Source text: as §5, §4

[9] = system: IPK and MDD from S. solfataricus; experiment: GC-MS in vitro alternative MVA pathway reaction; type: biochemical
Source text: as §5, §4

MJ0403 = MJ0403 (Methanocaldococcus jannaschii, UniProt Q57846); experiment: In vitro decarboxylase activity of MJ0403; type: biochemical, M. jannaschii
Source text: MJ0403 encodes a protein that is similar in sequence to subunit B of class III extradiol ring-cleavage dioxygenases and is also homologous to the human protein MEMO (mediator of erbB2-driven cell motility).

[10] = system: MDD homolog from R. castenholzii; experiment: Steady-state kinetics, MDD homolog tested as MDD; type: biochemical
Description: as §1, §2

MDD from B. floridae = MDD from B. floridae (Branchiostoma floridae, UniProt C3ZGP5); experiment: Steady-state kinetics, coupled assay, MDD; type: biochemical; details: substrate MVAPP
MDD from S. solfataricus = MDD from S. solfataricus (Saccharolobus solfataricus, UniProt Q97UL5); experiment: Steady-state kinetics, MDD; type: biochemical; details: steady state conditions, kinetic parameters could not be assigned
IPK from A. thaliana = IPK from A. thaliana (Arabidopsis thaliana, UniProt Q8H1F7); experiment: Kinetics, coupled assay, IPK
IPK from B. floridae = IPK from B. floridae (Branchiostoma floridae, UniProt A0A9J7KY69); experiment: Steady-state kinetics, coupled assay, IPK
IPK from M. maripaludis = IPK from M. maripaludis (Methanococcus maripaludis, UniProt Q6LWR2); experiment: Steady-state kinetics, coupled pyruvate kinase-lactate dehydrogenase assay, IPK
[11] = substrate: C=C(C)CCOP(=O)(O)O; experiment: purified protein, by the assay type; details: other: substrate IP
[12] = substrate: CC(O)(CCOP(=O)(O)OP(=O)(O)O)CC(=O)O; experiment: purified protein, by the assay type; details: other: substrate MVAPP; A. thaliana MDD
[13] = substrate: CC(O)(CCOP(=O)(O)O)CC(=O)O; experiment: purified protein, by the assay type; details: other: substrate MVAP; A. thaliana PMK

MDD from B. floridae, sequence (C3ZGP5 1-409): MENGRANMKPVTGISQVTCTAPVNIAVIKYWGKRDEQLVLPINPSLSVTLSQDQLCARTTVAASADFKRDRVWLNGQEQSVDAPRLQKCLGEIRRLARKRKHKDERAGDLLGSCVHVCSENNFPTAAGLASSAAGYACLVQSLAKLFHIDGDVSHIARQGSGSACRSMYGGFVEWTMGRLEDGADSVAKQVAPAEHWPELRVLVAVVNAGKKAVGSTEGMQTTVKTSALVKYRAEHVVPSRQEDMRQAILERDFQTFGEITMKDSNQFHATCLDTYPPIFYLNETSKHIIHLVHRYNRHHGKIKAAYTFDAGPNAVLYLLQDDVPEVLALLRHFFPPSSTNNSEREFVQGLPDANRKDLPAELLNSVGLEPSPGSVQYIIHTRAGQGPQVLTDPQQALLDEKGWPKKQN
PMK from S. solfataricus, sequence (Q97UL6 whole entry): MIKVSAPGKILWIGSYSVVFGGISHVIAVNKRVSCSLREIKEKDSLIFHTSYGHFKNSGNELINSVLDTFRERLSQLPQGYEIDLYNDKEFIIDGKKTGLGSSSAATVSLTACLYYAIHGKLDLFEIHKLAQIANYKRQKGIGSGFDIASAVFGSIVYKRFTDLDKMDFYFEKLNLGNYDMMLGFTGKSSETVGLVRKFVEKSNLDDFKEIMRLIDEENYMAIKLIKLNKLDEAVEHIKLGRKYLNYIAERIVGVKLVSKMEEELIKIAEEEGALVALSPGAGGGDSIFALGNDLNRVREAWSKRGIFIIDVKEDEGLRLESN
PMK from B. floridae, sequence (C3Y1G0 1-201): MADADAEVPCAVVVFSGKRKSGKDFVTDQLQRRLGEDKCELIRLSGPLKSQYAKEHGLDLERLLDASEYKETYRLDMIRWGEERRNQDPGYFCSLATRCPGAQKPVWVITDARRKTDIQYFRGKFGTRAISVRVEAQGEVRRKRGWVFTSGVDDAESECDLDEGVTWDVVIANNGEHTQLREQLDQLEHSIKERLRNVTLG
MJ0403, sequence (Q57846 whole entry): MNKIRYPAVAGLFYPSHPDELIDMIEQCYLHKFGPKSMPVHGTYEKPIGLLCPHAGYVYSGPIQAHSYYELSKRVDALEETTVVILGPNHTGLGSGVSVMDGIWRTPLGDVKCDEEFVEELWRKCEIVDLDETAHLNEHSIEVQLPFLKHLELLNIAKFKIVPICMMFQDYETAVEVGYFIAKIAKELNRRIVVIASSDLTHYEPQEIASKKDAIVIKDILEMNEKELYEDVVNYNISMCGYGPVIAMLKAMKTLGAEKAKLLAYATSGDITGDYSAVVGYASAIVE
MDD from S. solfataricus, sequence (Q97UL5 whole entry): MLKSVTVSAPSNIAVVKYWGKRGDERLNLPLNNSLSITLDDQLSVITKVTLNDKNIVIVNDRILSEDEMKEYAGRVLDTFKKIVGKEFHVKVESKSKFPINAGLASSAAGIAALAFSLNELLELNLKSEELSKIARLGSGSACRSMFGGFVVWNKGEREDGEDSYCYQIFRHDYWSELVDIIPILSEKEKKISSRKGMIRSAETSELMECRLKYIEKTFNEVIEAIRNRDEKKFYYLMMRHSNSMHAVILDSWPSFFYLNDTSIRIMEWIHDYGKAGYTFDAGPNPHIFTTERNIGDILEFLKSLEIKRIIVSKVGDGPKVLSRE

CC(O)(CCOP(=O)(O)O)CC(=O)O (stereo not shown) [MVAP, phosphomevalonate]
Ki (PMK from S. solfataricus): 5.5 mM
kcat (PMK from S. solfataricus; substrate MVAP, S. solfataricus PMK): 1.98 (±0.10) s^−1
Km ([1]; decarboxylation of MVAP to IP, read-out: apparent KM for MVAP): 1150 µM
kcat ([1]; substrate MVAP): 0.94 s^−1 and 0.94 (±0.08) s^−1
Km ([1]; substrate MVAP, read-out: KM): 1150 µM
kcat (PMK from B. floridae): 12.6 (±0.4) s^−1
conversion of MVAP to 5-EA [2]: 48.7%
conversion of MVAP to 5-EA [3]: 52.1%
conversion of MVAP to 5-EA [4]: 39.2%
conversion to 5-EA [5]: < 0.2%
conversion of MVAP to 5-EA [6]: 2.0%
5-EA formation [7]: do not yield any detectable 5-EA
5-EA formation [8]: do not yield any detectable 5-EA
5-EA formation [9]: do not yield any detectable 5-EA
turnover of MVAP (decarboxylase activity) (MJ0403): failed to show any turnover

CC(O)(CCOP(=O)(O)OP(=O)(O)O)CC(=O)O (racemic) [MVAPP, diphosphomevalonate]
decarboxylation of MVAPP to IPP at a measurable rate [10]: does not catalyze
Km (MDD from B. floridae): 15.1 µM
kcat (MDD from B. floridae): 1.36 (±0.09) s^−1
rate of decarboxylation of MVAPP (MDD from S. solfataricus): very slow rate

C=C(C)CCOP(=O)(O)O [IP, isopentenyl phosphate]
Ki (IPK from A. thaliana): 0.522 mM
Ki (IPK from B. floridae): 2.82 mM
Ki (IPK from M. maripaludis): 0.877 mM

B1: IPK from A. thaliana (Arabidopsis thaliana) (protein)
chain: MELNISESRSRSIRCIVKLGGAAITCKNELEKIHDENLEVVACQLRQAMLEGSAPSKVIGMDWSKRPGSSEISCDVDDIGDQKSSEFSKFVVVHGAGSFGHFQASRSGVHKGGLEKPIVKAGFVATRISVTNLNLEIVRALAREGIPTIGMSPFSCGWSTSKRDVASADLATVAKTIDSGFVPVLHGDAVLDNILGCTILSGDVIIRHLADHLKPEYVVFLTDVLGVYDRPPSPSEPDAVLLKEIAVGEDGSWKVVNPLLEHTDKKVDYSVAAHDTTGGMETKISEAAMIAKLGVDVYIVKAATTHSQRALNGDLRDSVPEDWLGTIIRFSK
Km ([11]; A. thaliana IPK): 0.79 (±0.35) μM
kcat ([11]; A. thaliana IPK): 1.9 s⁻¹
kcat/Km ([11]; A. thaliana IPK): 2.4e+06 M⁻¹ s⁻¹

B2: IPK from T. adhaerens (Trichoplax adhaerens) (protein)
chain: MALENRHVDCIIKLGGSAITSKQHLEKANTQAINIAASHVHEMTRKCVIVHGAGSFGHFHAKKYNIATGFNDTDFEQQRIGFSQTRLSVTKLNHIIVQALIEKDVPAVSISPCGLWKTTDRSVTSTFLQPINDLLRAGFVPVVHGDAVIDTSLGCTILSGDTIIQILAENLCPKRIIFITDTNGIYDRPPHNDDAKLLRYISVTKDGKVTNEIETSQLEHDVTGGVQTKIASAAHIVSKCNIPVHVVKLGSAAAWKLLDKGELEESDIATTITLQESEYPK
Km ([11]; T. adhaerens IPK): 3.1 (±1.6) μM
kcat ([11]; T. adhaerens IPK): 2.4 s⁻¹
kcat/Km ([11]; T. adhaerens IPK): 770000 M⁻¹ s⁻¹

B3: IPK from B. floridae (Branchiostoma floridae) (protein)
chain: MVSSSRSKVMAEADASLECIVKLGGSAVTDKSTLETPRLDAIRAAADIISQVRGRCIVVHGAGSFGHFQAREHGVVWGYRDKETDTEVQTVKLGFCRTRQSVTKLLHIITEEFVRLGIPAVGVSPLSSWVTDDASVVKADTDNIRDMLLEGFLPVMHGDAVLDRKRGCTILSGDTIIKHLCSVFRPPRVVFLTDVPGIYDRPPEQPGAQLIPEIQVDRDRKLHVSIATSSQAHDVTGGIALKLKSAIDIVTESNGHTCVMVCGIQSQAAVRACVEGQLPQGTGTIVQLNISKHPDEVT
Km ([11]; B. floridae IPK): 13.3 (±2.0) μM
kcat ([11]; B. floridae IPK): 27.2 s⁻¹
kcat/Km ([11]; B. floridae IPK): 2.05e+06 M⁻¹ s⁻¹

B4: IPK from M. maripaludis (Methanococcus maripaludis S2) (protein)
chain: MFAILKLGGSILCDKNIPYSINWENLENIAIEIKEAIEYYKSKNEEFKLIIVHGGGSFGHPVAKKYLKDGKFVDMGKGYWEIQKAMRKFNNIVIEELQNFEIPAVSIQASSFITFDNESNLHFDTNAVEKMLDKGLIPVIHGDIVIDEKTDNFKIFSGDHALPFLSKKLNPDLSLHASDVDGVWDLNFKIIENINSKNIEDVLKSLKPSNKEDVTGGMHLKVMECYNLGIKTIIFNGNKKRNIYNALLKNVKGTLIN
Km ([11]; M. maripaludis IPK): 21.4 (±4.3) μM
kcat ([11]; M. maripaludis IPK): 15.2 s⁻¹
kcat/Km ([11]; M. maripaludis IPK): 710000 M⁻¹ s⁻¹

B5: MDD from A. thaliana (Arabidopsis thaliana) (protein)
chain: MAEEKWVVMVTAQTPTNIAVIKYWGKRDEVRILPINDSISVTLDPDHLCTLTTVAVSPSFDRDRMWLNGKEISLSGSRYQNCLREIRSRADDVEDKEKGIKIAKKDWEKLHLHIASHNNFPTAAGLASSAAGFACLVFALAKLMNVNEDPSQLSAIARQGSGSACRSLFGGFVKWNMGNKEDGSDSVAVQLVDDKHWDDLVIIIAVVSSRQKETSSTSGMRESVETSLLLQHRAKEVVPVRILQMEEAIKNRDFTSFTKLTCSDSNQFHAVCMDTSPPIFYMNDTSHRIISLVEKWNRSAGTPEIAYTFDAGPNAVMIARNRKVAVELLQGLLYCFPPKPDTDMKSYVLGDTSIVKEAGLEGELPQGIKDKIGSQDQKGEVSYFICSRPGRGPVVLQDQTQALLHPQTGLPK
Km [12]: 15.7 (±5.0) μM
kcat [12]: 2.02 ± 0.13 s⁻¹
kcat/Km [12]: 130000 ± 40000 M⁻¹ s⁻¹

B6: PMK from A. thaliana (Arabidopsis thaliana) (protein)
chain: MAVVASAPGKVLMTGGYLVLEKPNAGLVLSTNARFYAIVKPINEEVKPESWAWKWTDVKLTSPQLSRESMYKLSLNHLTLQSVSASDSRNPFVEHAIQYAIAAAHLATEKDKESLHKLLLQGLDITILGSNDFYSYRNQIESAGLPLTPESLGTLAPFASITFNAAESNGANSKPEVAKTGLGSSAAMTTAVVAALLHYLGVVDLSDPCKEGKFGCSDLDVIHMIAQTSHCLAQGKVGSGFDVSCAVYGSQRYVRFSPEVLSFAQVAVTGLPLNEVIGTILKGKWDNKRTEFSLPPLMNLFLGEPGSGGSSTPSMVGAVKKWQMSDPEKARENWQNLSDANLELETKLNDLSKLAKDHWDVYLRVIKSCSVLTSEKWVLHATEPINEAIIKELLEAREAMLRIRILMRQMGEAASVPIEPESQTQLLDSTMSAEGVLLAGVPGAGGFDAIFAITLGDSGTKLTQAWSSHNVLALLVREDPHGVCLESGDPRTTCITSGVSSIHLE
Km [13]: 11.8 (±2.0) μM
kcat [13]: 20.9 ± 0.7 s⁻¹
kcat/Km [13]: 1.77e+06 ± 310000 M⁻¹ s⁻¹

— patent US20140356854A1, “METHODS AND COMPOSITIONS RELATING TO MEVALONATE PHOSPHATE DECARBOXYLASE” (Salk Institute for Biological Studies, priority 2013, published 2014)
